From article PMC9858421 (Journal of Enzyme Inhibition and Medicinal Chemistry, 2023)
“Also recorded” adds a separate entry of the source. Where two headings read alike, the source gives them in different places.

Columns and labels:
[1] = test system: VDAC1; conditions: PLB, cited from earlier work
[2] = target: T1, hVDAC1 (Homo sapiens, UniProt P21796); assay: MST binding check; conditions: 100 nM hVDAC1, highest soluble ligand concentration
[3] = target: T1, hVDAC1; assay: NanoDSF thermal shift; assay type: binding; conditions: hVDAC1 in LDAO; compared to hVDAC1 alone at 0% or 5% DMSO
[4] = target: T1, hVDAC1; assay: MST dose-response experiment; assay type: binding
[5] = target: rVDAC1; conditions: cited from earlier work
[6] = target: T1, hVDAC1; conditions: read-out: Published Kd; cited from earlier work
[7] = MST dose-response, 100 nM hVDAC1, 16 concentrations

T1 sequence (P21796 whole entry): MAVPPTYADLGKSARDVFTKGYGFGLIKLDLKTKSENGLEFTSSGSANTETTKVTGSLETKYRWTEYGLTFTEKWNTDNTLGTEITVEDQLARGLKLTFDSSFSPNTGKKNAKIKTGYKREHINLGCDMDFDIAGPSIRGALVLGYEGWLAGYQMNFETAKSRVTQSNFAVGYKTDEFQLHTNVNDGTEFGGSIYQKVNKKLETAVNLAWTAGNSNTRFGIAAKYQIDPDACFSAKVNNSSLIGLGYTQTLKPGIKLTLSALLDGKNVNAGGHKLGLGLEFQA

| Compound | MST Binding Check [2] | Tm shift in NanoDSF (direction / significance, in words) [3] | Kd [4] [µM] | other results |
| --- | --- | --- | --- | --- |
| C(=NC1CCCCC1)=NC1CCCCC1 [DCCD] | Positive | increase the Tm |  | Effect(s) on activity ([1]; NMR, [14C] DCCD-labelled VDAC1): Reduces conductance Inhibits HK-VDAC1 binding |
| CNCCC(Oc1ccc(C(F)(F)F)cc1)c1ccccc1 (centres unmarked) [Fluoxetine] |  |  |  | Effect(s) on activity [1]: Reduces conductance Prevents Cyto C release |
| CC(C)CCC[C@@H](C)[C@H]1CC[C@H]2[C@@H]3CCC4=CC(=NO)CC[C@]4(C)[C@H]3CC[C@]12C [Olesoxime] | Positive | negative Tm shift |  | Effect(s) on activity [1]: Reduces conductance; MST Binding Check ([2]; listed as olesoxime): validated by binding check |
| COc1cc(/C=C/C(=O)CC(=O)/C=C/c2ccc(O)c(OC)c2)ccc1O [Curcumin] | Positive | negative Tm shift | 6 ± 1 | Kd [4, 7]: < 10 µM; Effect(s) on activity [1]: Reduces conductance by promoting closed state(s) |
| CC(=O)Oc1ccccc1C(=O)O [Aspirin] | Positive |  |  | MST Binding Check ([2]; listed as aspirin): validated by binding check |
| C=C(C)[C@@H]1CCC(C)=C[C@H]1c1c(O)cc(CCCCC)cc1O [Cannabidiol] | Positive | increase the Tm; also recorded: positive | 6 ± 2 | Kd [4, 7]: < 10 µM; Effect(s) on activity ([1]; MST): Reduces conductance Increases mitochondrial Ca^2+; Kd ([5]; read-out: Published Kd, listed as cannabidiol): 11 µM; Kd ([5]; read-out: Published Kd): 11.2 µM |
| C=C[C@H]1C[N@@]2CC[C@H]1C[C@@H]2[C@@H](O)c1ccnc2ccc(OC)cc12 [Quinidine] | Positive | negative Tm shift |  | MST Binding Check ([2]; listed as quinidine): validated by binding check |
| O.Oc1cc(O)c2c(c1)O[C@H](c1ccc(O)c(O)c1)[C@@H](O)C2 [Catechin] |  | increase the Tm; also recorded: significant Tm shift |  |  |
| Cc1cc(O)c2c(c1)C(=O)c1cc(O)cc(O)c1C2=O [Emodin] | Positive | not been confirmed as VDAC1 ligands; also recorded: no significant changes in Tm | 10 ± 5 | MST Binding Check ([2]; listed as emodin): binding was shown |
| NC(=O)C1=CN([C@@H]2O[C@H](COP(=O)(O)OP(=O)(O)OC[C@H]3O[C@@H](n4cnc5c(N)ncnc54)[C@H](O)[C@@H]3O)[C@@H](O)[C@H]2O)C=CC1 [NADH] | validated by binding check; also recorded: Positive | not been confirmed as VDAC1 ligands |  | Effect(s) on activity ([1]; NMR): Affects gating without reducing the conductance Sterically closes the channel; Kd [6]: 9000 µM |
| CN(C)C(=N)N=C(N)N [Metformin] | Positive | not been confirmed as VDAC1 ligands |  | Effect(s) on activity ([1]; MST): Reduces conductance No binding observed by MST; MST Binding Check ([2]; listed as metformin): validated by binding check |
| O=C(O)c1ccccc1Nc1ccccc1 [DPC] | validated by binding check; also recorded: Positive | negative Tm shift |  | Effect(s) on activity ([1]; MST): Reduces conductance Prevents oligomerization; Kd ([5]; read-out: Published Kd): 150 µM |
| CCC(C)n1ncn(-c2ccc(N3CCN(c4ccc(OCC5COC(Cn6cncn6)(c6ccc(Cl)cc6Cl)O5)cc4)CC3)cc2)c1=O (centres unmarked) [Itraconazole] | Positive |  | 5 ± 2 | MST Binding Check ([2]; listed as itraconazole): binding was shown; Kd ([5]; read-out: Published Kd): 120 µM |
| CC(C)c1cccc(C(C)C)c1O [Propofol] | Positive | increase the Tm | > 650 | Effect(s) on activity [1]: Promotes closure when a negative voltage is applied No effects on open state conductance |
